Reference: patent US20200093815A1, “COMBINATIONS OF EZH2 INHIBITORS WITH FURTHER AGENTS FOR USE IN THE TREATMENT OF CANCER” (Constellation Pharmaceuticals, Inc., priority 2015, published 2020)

What was measured:
[1] = tested on: OPM-2 multiple myeloma cells; experiment: Cell Titre Glo viability, EZH2 inhibitor and lenalidomide matrix, OPM-2; format: cell-based; settings: Inhibitor 1 alone, FIG. 3E
Procedure: (§1) For all these experiments estimating the combinatorial response between EZH2 inhibitor and lenalidomide, cells were pre-treated with 8 different doses of EZH2 inhibitor for 8 days (Cells were split after 4 days and plated onto EZH2 inhibitor containing plates for an additional 4 days). After pre-treatment, cells were split and seeded onto EZH2 inhibitor and lenaldomide containing plates (compounds plated in a matrix format). Viability was assessed using Cell Titre Glo after 4 days of co-treatment.
(§2) Data are represented as the average percentage of cells in drug-treated wells as compared to DMSO-treated wells from independent duplicate experiments (i and ii). To assess synergy, the data was analyzed in a number of ways including calculation of combination index, bliss independence score and Loewe excess score. […] Data are represented as the mean of independent duplicate experiments ±s.d.

[2] = tested on: OPM-2 subcutaneous xenograft; experiment: OPM-2 subcutaneous xenograft combination experiment (lenalidomide, dexamethasone); format: in vivo, BALB/C nude mouse
Procedure: (§3) The experiment was carried out to assess the impact of Inhibitor 1 and lenalidomide in combination. Inhibitor 1 was dosed twice daily at 200 mg/kg, administered subcutaneously (200 mpk SC BID) and lenalidomide was dosed intraperitoneally once a day at 25 mg/kg (25 mpk IP QD) for the course of the entire study. Tumor volume was plotted as a function of time. Data are represented as the mean tumor volume per cohort and time point ±s.d. Bodyweight was assessed for vehicle and compound-treated animals for the experiment described in FIG. 6A. […] Data are represented as described in FIG. 6A. Vehicle and compound-treated tumors were collected at the end of the study and analyzed for global H3K27me3 and total H3 levels using an MSD ELISA assay.
Tumor volume was plotted as a function of time.

[3] = tested on: 19 multiple myeloma cell lines; experiment: Combination with standard of care agents in multiple myeloma cell lines; format: cell-based; settings: FIG. 16
Description: FIG. 16 summarizes the synergies observed between various standard of care agents as described above in 19 multiple myeloma cell lines.

[4] = tested on: H3K27me3; experiment: MSD ELISA of global H3K27me3 and total H3 in OPM-2 tumors (lenalidomide study); format: in vivo, BALB/C nude mouse; settings: end of study, total H3 as normalizer; Inhibitor 1 vs vehicle control, combination vs lenalidomide alone; FIG. 6C
Procedure: as §3
Total H3 was used as a normalizer. Data are represented as the mean of data from 4 subjects±s.e.m.

[5] = tested on: KMS-27 multiple myeloma cells; experiment: Cell Titre Glo viability, EZH2 inhibitor and lenalidomide matrix, KMS-27; format: cell-based; settings: Inhibitor 1 alone, FIG. 4E
Procedure: as §1, §2

[6] = tested on: H3K27me3; experiment: MSD ELISA of global H3K27me3 and total H3 in OPM-2 tumors (Panobinostat study); format: in vivo, BALB/C nude mouse; settings: Inhibitor 1 200 mpk SC BID vs vehicle control, end of study
Procedure: FIG. 11A is an in vivo combination experiment using an OPM-2 subcutaneous xenograft BALB/C nude mouse model (n=8 per cohort). The experiment was carried out to assess the impact of Inhibitor 1 and Panobinostat in combination. Inhibitor 1 was dosed twice daily at 200 mg/kg administered subcutaneously (200 mpk SC BID) and Panobinostat was dosed intraperitoneally once a day. Panobinostat was dosed at 5 mg/kg QD (DO-D4); 2.5 mg/kg QD (D7-D9, D13, D17 and D19), the dose and frequency of dosing was reduced to manage the toxicity effects. Tumor volume was plotted as a function of time. Data are represented as the mean tumor volume per cohort and time point±s.d. Bodyweight was assessed for vehicle and compound-treated animals for the experiment described in FIG. 11B. Data are represented as described in FIG. 11C. Vehicle and Inhibitor 1-treated tumors were collected at the end of the study and analyzed for global H3K27me3 and total H3 levels using an MSD ELISA assay. […] Data are represented as the mean of data from 4 subjects±s.e.m.

[7] = tested on: KARPAS-422 xenograft; settings: mouse, in vivo, po, 100 mg/kg
Procedure: Tumor volume measurements were recorded at indicated days post initial dose.* CHOP: Cyclophosphamide, 40 mg/kg, i.v.; doxorubicin, 3.3 mg/kg, i.v.; vincristine, 0.5 mg/kg, i.v.; and prednisone, 0.2 mg/kg, every day for 5 days, p.o.

SMILES | effect of single agent on cell viability [1] | single agent activity in xenograft model ([2]; Inhibitor 1 200 mpk SC BID alone) | effect on in vivo anti-tumor activity of dexamethasone ([2]; OPM-2 xenograft, FIG. 13) | combinatorial activity with standard of care agents [3] | levels of H3K27me3 in tumors [4] | effect of single agent on cell viability [5] | levels of H3K27me3 in tumors [6] | adverse effects / toxicity [7]
CCS(=O)(=O)N1CCC([C@@H](C)n2c(C)c(C(=O)NCc3c(OC)cc(C)[nH]c3=O)c3ccccc32)CC1 [Inhibitor 1] | dose-dependent effect | little single agent activity | increases | broadly combines with various different standard of care agents | marked reduction | dose-dependent effect | marked reduction | –
COc1cc(C)[nH]c(=O)c1CNC(=O)c1c(C)n(C(C)C2CCN(CC(F)(F)F)CC2)c2ccccc12 (stereo not drawn) [Inhibitor 3] | – | – | – | – | – | – | – | did not show any adverse effects and did not add to CHOP toxicity
Nc1cccc2c1CN(C1CCC(=O)NC1=O)C2=O (stereo not drawn) [Lenalidomide, lenalidomide, reference compound] | – | – | – | – | did not affect | – | – | –
